Test results reported in PMC5428509, “Irreversible inhibition of BTK kinase by a novel highly selective inhibitor CHMFL-BTK-11 suppresses inflammatory response in rheumatoid arthritis model” (Scientific Reports, 2017).

How the values were obtained:
Experiment in all cases: biochemical
Set-up in all cases: KinomeScan competition binding panel (DiscoveRx), percent of control at 1 uM
Conditions in all cases: read-out: Percent Control
ALK = ALK (Homo sapiens, UniProt Q9UM73)
Summary of the method: (§1)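 Selectivity profiled across 456 kinases/mutants by KinomeScan binding technology.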

CASK = CASK (Homo sapiens, UniProt O14936)
Summary of the method: as §1

NLK = NLK (Homo sapiens, UniProt Q9UBE8)
Summary of the method: as §1

HIPK1 = HIPK1 (Homo sapiens, UniProt Q86Z02)
Summary of the method: as §1

MET(Y1235D) = MET(Y1235D) (Homo sapiens, UniProt P08581, Y1235D)
Summary of the method: as §1

CAMK1D = CAMK1D (Homo sapiens, UniProt Q8IU85)
Summary of the method: as §1

SYK = SYK (Homo sapiens, UniProt P43405)
Summary of the method: as §1

MYLK = MYLK (Homo sapiens, UniProt Q15746)
Summary of the method: as §1

NEK9 = NEK9 (Homo sapiens, UniProt Q8TD19)
Summary of the method: as §1

EPHA3 = EPHA3 (Homo sapiens, UniProt P29320)
Summary of the method: as §1

LIMK1 = LIMK1 (Homo sapiens, UniProt P53667)
Summary of the method: as §1

PIK3CA(E545K) = PIK3CA(E545K) (Homo sapiens, UniProt P42336, E545K)
Summary of the method: as §1

[1] = target: T1, ABL1(F317I)-phosphorylated (Homo sapiens, UniProt P00519, F317I)
T1 construct: phosphorylated
Summary of the method: as §1

CSNK1G3 = CSNK1G3 (Homo sapiens, UniProt Q9Y6M4)
Summary of the method: as §1

PIK3C2B = PIK3C2B (Homo sapiens, UniProt O00750)
Summary of the method: as §1

PRKD1 = PRKD1 (Homo sapiens, UniProt Q15139)
Summary of the method: as §1

[2] = target: T2, RPS6KA5(Kin.Dom.1-N-terminal) (Homo sapiens, UniProt O75582)
T2 construct: Kin.Dom.1-N-terminal
Summary of the method: as §1

AXL = AXL (Homo sapiens, UniProt P30530)
Summary of the method: as §1

PIP5K1A = PIP5K1A (Homo sapiens, UniProt Q99755)
Summary of the method: as §1

[3] = target: T3, JAK1(JH2domain-pseudokinase) (Homo sapiens, UniProt P23458)
T3 construct: JH2domain-pseudokinase
Summary of the method: as §1

[4] = target: T4, RSK4(Kin.Dom.1-N-terminal) (Homo sapiens, UniProt Q9UK32)
T4 construct: gene RPS6KA6; Kin.Dom.1-N-terminal
Summary of the method: as §1

CDC2L2 = target: T5, CDC2L2 (Homo sapiens, UniProt Q9UQ88)
T5 construct: gene CDK11A
Summary of the method: as §1

PLK4 = PLK4 (Homo sapiens, UniProt O00444)
Summary of the method: as §1

MAP3K4 = MAP3K4 (Homo sapiens, UniProt Q9Y6R4)
Summary of the method: as §1

FGFR1 = FGFR1 (Homo sapiens, UniProt P11362)
Summary of the method: as §1

T5 sequence (Q9UQ88 whole entry): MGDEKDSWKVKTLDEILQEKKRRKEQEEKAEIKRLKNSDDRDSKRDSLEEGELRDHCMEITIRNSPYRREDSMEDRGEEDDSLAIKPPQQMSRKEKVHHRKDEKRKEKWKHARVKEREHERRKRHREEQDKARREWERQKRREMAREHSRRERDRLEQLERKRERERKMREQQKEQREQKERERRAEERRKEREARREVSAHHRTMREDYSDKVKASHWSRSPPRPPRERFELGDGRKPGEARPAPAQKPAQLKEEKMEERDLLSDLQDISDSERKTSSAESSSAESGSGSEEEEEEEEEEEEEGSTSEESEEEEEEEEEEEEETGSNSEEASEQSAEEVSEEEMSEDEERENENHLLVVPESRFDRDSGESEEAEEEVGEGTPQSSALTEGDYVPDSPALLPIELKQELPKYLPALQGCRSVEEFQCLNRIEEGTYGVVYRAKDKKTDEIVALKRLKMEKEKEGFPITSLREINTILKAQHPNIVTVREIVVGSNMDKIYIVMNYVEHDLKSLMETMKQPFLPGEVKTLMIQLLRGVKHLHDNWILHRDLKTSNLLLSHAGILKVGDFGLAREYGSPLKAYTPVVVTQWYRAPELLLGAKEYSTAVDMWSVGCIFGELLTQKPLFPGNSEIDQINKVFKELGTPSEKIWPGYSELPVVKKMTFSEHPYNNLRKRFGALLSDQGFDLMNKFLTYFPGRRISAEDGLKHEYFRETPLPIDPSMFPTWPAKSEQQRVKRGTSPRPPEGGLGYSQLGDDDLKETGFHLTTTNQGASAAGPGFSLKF
PIK3C2B, sequence (O00750 whole entry): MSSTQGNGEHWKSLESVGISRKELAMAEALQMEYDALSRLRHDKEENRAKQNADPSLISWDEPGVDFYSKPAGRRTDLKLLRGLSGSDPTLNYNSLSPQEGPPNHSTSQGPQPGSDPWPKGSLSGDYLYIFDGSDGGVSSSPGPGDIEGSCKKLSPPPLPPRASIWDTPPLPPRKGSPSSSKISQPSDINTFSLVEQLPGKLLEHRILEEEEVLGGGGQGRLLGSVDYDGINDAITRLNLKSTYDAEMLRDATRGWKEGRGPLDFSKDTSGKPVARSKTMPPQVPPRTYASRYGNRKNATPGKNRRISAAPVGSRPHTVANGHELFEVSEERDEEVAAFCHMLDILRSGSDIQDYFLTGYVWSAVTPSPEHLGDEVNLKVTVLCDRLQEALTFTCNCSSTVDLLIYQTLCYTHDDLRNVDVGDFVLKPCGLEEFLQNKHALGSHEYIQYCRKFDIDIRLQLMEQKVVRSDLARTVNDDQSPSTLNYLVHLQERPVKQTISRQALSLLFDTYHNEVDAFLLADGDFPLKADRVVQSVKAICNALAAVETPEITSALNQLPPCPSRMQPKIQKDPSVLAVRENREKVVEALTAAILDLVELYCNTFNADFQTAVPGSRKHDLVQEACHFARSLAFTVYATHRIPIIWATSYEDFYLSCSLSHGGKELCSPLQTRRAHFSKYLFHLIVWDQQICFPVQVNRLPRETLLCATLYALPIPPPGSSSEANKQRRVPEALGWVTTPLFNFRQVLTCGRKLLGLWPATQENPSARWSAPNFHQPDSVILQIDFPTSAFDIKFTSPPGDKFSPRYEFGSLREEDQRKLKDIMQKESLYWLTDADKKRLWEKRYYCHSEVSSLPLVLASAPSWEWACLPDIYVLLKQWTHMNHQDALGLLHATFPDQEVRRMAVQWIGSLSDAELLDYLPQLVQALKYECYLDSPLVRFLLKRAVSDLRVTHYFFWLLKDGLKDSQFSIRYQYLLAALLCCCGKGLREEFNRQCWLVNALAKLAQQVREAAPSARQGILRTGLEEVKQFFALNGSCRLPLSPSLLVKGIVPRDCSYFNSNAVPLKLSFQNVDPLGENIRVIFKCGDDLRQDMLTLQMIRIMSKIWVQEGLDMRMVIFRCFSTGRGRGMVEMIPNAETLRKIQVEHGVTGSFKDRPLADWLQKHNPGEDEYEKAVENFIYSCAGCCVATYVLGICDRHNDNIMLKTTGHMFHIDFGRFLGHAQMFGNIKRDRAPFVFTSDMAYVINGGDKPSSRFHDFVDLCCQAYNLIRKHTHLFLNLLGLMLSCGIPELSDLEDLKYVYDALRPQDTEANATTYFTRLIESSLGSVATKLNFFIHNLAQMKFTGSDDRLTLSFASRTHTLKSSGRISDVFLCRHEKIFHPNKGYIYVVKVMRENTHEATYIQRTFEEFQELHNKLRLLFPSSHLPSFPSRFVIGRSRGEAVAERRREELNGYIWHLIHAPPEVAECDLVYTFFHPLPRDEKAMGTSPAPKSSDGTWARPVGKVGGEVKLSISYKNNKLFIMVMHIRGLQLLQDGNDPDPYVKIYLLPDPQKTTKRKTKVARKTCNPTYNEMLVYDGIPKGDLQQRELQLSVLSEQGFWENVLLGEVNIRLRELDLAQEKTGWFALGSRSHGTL
HIPK1, sequence (Q86Z02 whole entry): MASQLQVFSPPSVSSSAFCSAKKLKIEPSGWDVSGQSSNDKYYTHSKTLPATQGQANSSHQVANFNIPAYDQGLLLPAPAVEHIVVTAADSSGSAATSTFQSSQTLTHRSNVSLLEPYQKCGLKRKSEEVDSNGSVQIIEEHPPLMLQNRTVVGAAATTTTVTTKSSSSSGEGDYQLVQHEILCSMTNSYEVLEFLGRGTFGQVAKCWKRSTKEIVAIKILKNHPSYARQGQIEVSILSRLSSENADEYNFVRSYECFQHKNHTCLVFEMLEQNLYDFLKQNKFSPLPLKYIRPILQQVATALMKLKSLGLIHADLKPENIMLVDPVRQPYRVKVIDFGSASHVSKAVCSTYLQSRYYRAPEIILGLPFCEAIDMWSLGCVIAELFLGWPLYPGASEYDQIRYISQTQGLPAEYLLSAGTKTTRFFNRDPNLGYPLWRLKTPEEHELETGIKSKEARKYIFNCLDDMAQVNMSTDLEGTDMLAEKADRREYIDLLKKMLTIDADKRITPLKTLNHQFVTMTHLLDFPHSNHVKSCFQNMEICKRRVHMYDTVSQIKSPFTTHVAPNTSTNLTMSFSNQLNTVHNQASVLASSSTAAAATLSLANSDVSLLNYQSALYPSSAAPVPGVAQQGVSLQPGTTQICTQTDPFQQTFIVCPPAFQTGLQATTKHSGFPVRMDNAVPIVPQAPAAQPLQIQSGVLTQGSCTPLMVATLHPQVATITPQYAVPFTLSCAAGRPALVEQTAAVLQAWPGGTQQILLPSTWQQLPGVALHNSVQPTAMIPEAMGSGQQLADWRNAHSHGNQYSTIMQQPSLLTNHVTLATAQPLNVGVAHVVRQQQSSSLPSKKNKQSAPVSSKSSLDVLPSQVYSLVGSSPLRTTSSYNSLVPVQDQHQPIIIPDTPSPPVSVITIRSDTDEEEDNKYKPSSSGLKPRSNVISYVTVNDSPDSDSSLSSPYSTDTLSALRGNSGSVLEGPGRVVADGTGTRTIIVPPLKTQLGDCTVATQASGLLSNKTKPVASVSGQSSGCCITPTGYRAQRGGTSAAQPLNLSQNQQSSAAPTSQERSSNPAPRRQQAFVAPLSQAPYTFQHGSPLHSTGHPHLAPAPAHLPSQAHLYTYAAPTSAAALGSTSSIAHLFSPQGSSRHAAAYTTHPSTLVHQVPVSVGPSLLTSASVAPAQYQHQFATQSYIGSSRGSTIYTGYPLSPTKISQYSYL
CAMK1D, sequence (Q8IU85 whole entry): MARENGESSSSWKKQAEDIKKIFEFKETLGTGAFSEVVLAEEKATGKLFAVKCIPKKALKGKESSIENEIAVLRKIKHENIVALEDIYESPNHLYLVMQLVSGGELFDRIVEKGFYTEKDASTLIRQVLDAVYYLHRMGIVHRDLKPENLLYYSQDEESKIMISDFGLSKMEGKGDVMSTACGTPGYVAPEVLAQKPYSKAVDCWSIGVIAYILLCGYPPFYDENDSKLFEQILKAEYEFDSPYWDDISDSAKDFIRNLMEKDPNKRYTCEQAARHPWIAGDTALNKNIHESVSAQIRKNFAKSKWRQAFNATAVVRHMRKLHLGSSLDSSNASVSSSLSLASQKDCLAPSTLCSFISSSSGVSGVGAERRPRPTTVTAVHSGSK
EPHA3, sequence (P29320 whole entry): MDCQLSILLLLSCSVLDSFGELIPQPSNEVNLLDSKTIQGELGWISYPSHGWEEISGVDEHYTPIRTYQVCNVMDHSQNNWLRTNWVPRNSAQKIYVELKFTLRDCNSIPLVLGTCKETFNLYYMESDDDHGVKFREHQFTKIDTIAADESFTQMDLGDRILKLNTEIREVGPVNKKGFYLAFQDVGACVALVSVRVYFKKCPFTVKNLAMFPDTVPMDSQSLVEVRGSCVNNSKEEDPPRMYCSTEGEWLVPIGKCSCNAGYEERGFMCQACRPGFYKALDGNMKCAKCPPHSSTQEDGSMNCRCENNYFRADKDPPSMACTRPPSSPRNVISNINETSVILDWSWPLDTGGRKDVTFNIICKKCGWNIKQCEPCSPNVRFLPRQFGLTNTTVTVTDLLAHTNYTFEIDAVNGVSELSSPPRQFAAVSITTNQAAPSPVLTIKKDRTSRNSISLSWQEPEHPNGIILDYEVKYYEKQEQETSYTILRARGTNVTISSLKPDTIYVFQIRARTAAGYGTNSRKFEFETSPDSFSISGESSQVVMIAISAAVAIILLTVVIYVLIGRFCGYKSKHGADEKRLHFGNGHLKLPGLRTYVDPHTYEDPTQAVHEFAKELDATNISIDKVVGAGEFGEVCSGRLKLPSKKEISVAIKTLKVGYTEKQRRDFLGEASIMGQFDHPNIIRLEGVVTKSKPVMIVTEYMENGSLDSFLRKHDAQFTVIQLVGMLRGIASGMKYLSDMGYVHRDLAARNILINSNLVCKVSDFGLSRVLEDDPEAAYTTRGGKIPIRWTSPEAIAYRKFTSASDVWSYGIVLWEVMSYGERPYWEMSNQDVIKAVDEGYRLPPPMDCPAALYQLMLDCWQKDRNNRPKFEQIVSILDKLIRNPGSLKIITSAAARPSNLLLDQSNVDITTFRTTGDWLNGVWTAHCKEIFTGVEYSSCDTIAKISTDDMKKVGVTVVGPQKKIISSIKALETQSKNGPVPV

Work on C=CC(=O)Nc1cc(-n2c(=O)ccc3cnc4ccc(-n5cccn5)cc4c32)ccc1C [CHMFL-BTK-11] yielded a remaining binding at 1 µM (ALK) of 100%, a remaining binding at 1 µM (CASK) of 86% and a remaining binding at 1 µM (NLK) of 100%. The remaining binding at 1 µM (HIPK1) was 79%, the remaining binding at 1 µM (MET(Y1235D)) was 100% and the remaining binding at 1 µM (CAMK1D) was 100%. It also gave a remaining binding at 1 µM (SYK) of 93%, a remaining binding at 1 µM (MYLK) of 82% and a remaining binding at 1 µM (NEK9) of 100%. It also gave a remaining binding at 1 µM (EPHA3) of 97%, a remaining binding at 1 µM (LIMK1) of 100% and a remaining binding at 1 µM (PIK3CA(E545K)) of 69%. It also gave a remaining binding at 1 µM [1] of 100%, a remaining binding at 1 µM (CSNK1G3) of 100% and a remaining binding at 1 µM (PIK3C2B) of 100%. It also gave a remaining binding at 1 µM (PRKD1) of 94%, a remaining binding at 1 µM [2] of 94% and a remaining binding at 1 µM (AXL) of 100%. For the same compound, the remaining binding at 1 µM (PIP5K1A) was 100%, the remaining binding at 1 µM [3] was 82% and the remaining binding at 1 µM [4] was 91%. It also gave a remaining binding at 1 µM (CDC2L2) of 100%, a remaining binding at 1 µM (PLK4) of 56% and a remaining binding at 1 µM (MAP3K4) of 97%. It also gave a remaining binding at 1 µM (FGFR1) of 88%.
